Results as given in PubChem BioAssay (NCI).
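Dose response: 5 concentrations. Exposure: 48 h. Format: 96-well plates. Endpoint: linear interpolation; highest concentration if not reached. Definition used: TGI = concentration required for complete inhibition of growth.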

Tests used:
Assay in all cases: inhibition of tumour cell growth, NCI panel, 48 h
MDA-N = tested on: MDA-N
HS 578T breast = tested on: HS 578T breast
LOX IMVI melanoma = tested on: LOX IMVI melanoma
SR leukemia = tested on: SR leukemia
EKVX NSCLC = tested on: EKVX NSCLC
HOP-92 NSCLC = tested on: HOP-92 NSCLC
BT-549 breast = tested on: BT-549 breast
NCI-H226 lung = tested on: NCI-H226 lung
CCRF-CEM leukemia = tested on: CCRF-CEM leukemia
MALME-3M melanoma = tested on: MALME-3M melanoma
T-47D breast = tested on: T-47D breast
COLO 205 colon = tested on: COLO 205 colon
MOLT-4 leukemia = tested on: MOLT-4 leukemia
DU-145 prostate = tested on: DU-145 prostate
NCI/ADR-RES ovarian = tested on: NCI/ADR-RES ovarian
NCI-H23 lung = tested on: NCI-H23 lung
HT29 colon = tested on: HT29 colon
SNB-19 CNS = tested on: SNB-19 CNS
OVCAR-5 ovarian = tested on: OVCAR-5 ovarian
UACC-62 melanoma = tested on: UACC-62 melanoma
SF-539 CNS = tested on: SF-539 CNS
HCC-2998 colon = tested on: HCC-2998 colon
SK-MEL-28 melanoma = tested on: SK-MEL-28 melanoma
SN12C renal = tested on: SN12C renal
ACHN renal = tested on: ACHN renal
NCI-H460 lung = tested on: NCI-H460 lung
SF-268 CNS = tested on: SF-268 CNS
A498 renal = tested on: A498 renal
IGROV1 ovarian = tested on: IGROV1 ovarian
M14 melanoma = tested on: M14 melanoma
MCF7 breast = tested on: MCF7 breast
786-0 renal = tested on: 786-0 renal
SK-MEL-5 melanoma = tested on: SK-MEL-5 melanoma
UACC-257 melanoma = tested on: UACC-257 melanoma
HL-60(TB) leukemia = tested on: HL-60(TB) leukemia
OVCAR-4 ovarian = tested on: OVCAR-4 ovarian
CAKI-1 renal = tested on: CAKI-1 renal
UO-31 renal = tested on: UO-31 renal
MDA-MB-435 = tested on: MDA-MB-435
HCT-116 colon = tested on: HCT-116 colon
RXF 393 renal = tested on: RXF 393 renal
K-562 leukemia = tested on: K-562 leukemia
OVCAR-3 ovarian = tested on: OVCAR-3 ovarian
HCT-15 colon = tested on: HCT-15 colon
SW-620 colon = tested on: SW-620 colon
A549 NSCLC = tested on: A549 NSCLC
OVCAR-8 ovarian = tested on: OVCAR-8 ovarian
NCI-H522 lung = tested on: NCI-H522 lung
HOP-62 NSCLC = tested on: HOP-62 NSCLC
U251 CNS = tested on: U251 CNS
SNB-75 CNS = tested on: SNB-75 CNS
SK-OV-3 ovarian = tested on: SK-OV-3 ovarian
MDA-MB-231 breast = tested on: MDA-MB-231 breast
SF-295 CNS = tested on: SF-295 CNS
RPMI-8226 leukemia = tested on: RPMI-8226 leukemia
TK-10 renal = tested on: TK-10 renal
PC-3 prostate = tested on: PC-3 prostate
KM12 colon = tested on: KM12 colon
SK-MEL-2 melanoma = tested on: SK-MEL-2 melanoma

SMILES: COc1c(CC=C(C)C)c(O)c(C(CC(C)C)c2c(O)c(C(C)=O)c(O)c3c2OC(C(C)(C)O)C3)c(O)c1C(C)=O (stereo not drawn)
- TGI (MDA-N): > 12.5 µM
- TGI (HS 578T breast): > 12.5 µM
- TGI (LOX IMVI melanoma): > 12.5 µM
- TGI (SR leukemia): 10.4 µM
- TGI (EKVX NSCLC): 11.6 µM
- TGI (HOP-92 NSCLC): 5.21 µM
- TGI (BT-549 breast): 10.6 µM
- TGI (NCI-H226 lung): > 12.5 µM
- TGI (CCRF-CEM leukemia): > 12.5 µM
- TGI (MALME-3M melanoma): > 12.5 µM
- TGI (T-47D breast): 8.36 µM
- TGI (COLO 205 colon): > 12.5 µM
- TGI (MOLT-4 leukemia): > 12.5 µM
- TGI (DU-145 prostate): > 12.5 µM
- TGI (NCI/ADR-RES ovarian): 12.2 µM
- TGI (NCI-H23 lung): > 12.5 µM
- TGI (HT29 colon): > 12.5 µM
- TGI (SNB-19 CNS): > 12.5 µM
- TGI (OVCAR-5 ovarian): > 12.5 µM
- TGI (UACC-62 melanoma): > 12.5 µM
- TGI (SF-539 CNS): > 12.5 µM
- TGI (HCC-2998 colon): > 12.5 µM
- TGI (SK-MEL-28 melanoma): > 12.5 µM
- TGI (SN12C renal): > 12.5 µM
- TGI (ACHN renal): > 12.5 µM
- TGI (NCI-H460 lung): > 12.5 µM
- TGI (SF-268 CNS): > 12.5 µM
- TGI (A498 renal): > 12.5 µM
- TGI (IGROV1 ovarian): > 12.5 µM
- TGI (M14 melanoma): > 12.5 µM
- TGI (MCF7 breast): > 12.5 µM
- TGI (786-0 renal): > 12.5 µM
- TGI (SK-MEL-5 melanoma): 8.24 µM
- TGI (UACC-257 melanoma): 9.32 µM
- TGI (HL-60(TB) leukemia): 6.57 µM
- TGI (OVCAR-4 ovarian): > 12.5 µM
- TGI (CAKI-1 renal): > 12.5 µM
- TGI (UO-31 renal): > 12.5 µM
- TGI (MDA-MB-435): > 12.5 µM
- TGI (HCT-116 colon): > 12.5 µM
- TGI (RXF 393 renal): 8.56 µM
- TGI (K-562 leukemia): > 12.5 µM
- TGI (OVCAR-3 ovarian): > 12.5 µM
- TGI (HCT-15 colon): > 12.5 µM
- TGI (SW-620 colon): > 12.5 µM
- TGI (A549 NSCLC): > 12.5 µM
- TGI (OVCAR-8 ovarian): > 12.5 µM
- TGI (NCI-H522 lung): > 12.5 µM

SMILES: Cn1cc(C(=O)c2nccc3c2cnc2ccccc23)ccc1=O
- TGI (MDA-N): > 100 µM
- TGI (HS 578T breast): > 100 µM
- TGI (LOX IMVI melanoma): > 100 µM
- TGI (HOP-62 NSCLC): > 100 µM
- TGI (U251 CNS): > 100 µM
- TGI (SR leukemia): 49.7 µM
- TGI (EKVX NSCLC): > 100 µM
- TGI (HOP-92 NSCLC): > 100 µM
- TGI (NCI-H226 lung): > 100 µM
- TGI (SNB-75 CNS): > 100 µM
- TGI (CCRF-CEM leukemia): > 100 µM
- TGI (MALME-3M melanoma): > 100 µM
- TGI (T-47D breast): > 100 µM
- TGI (SK-OV-3 ovarian): > 100 µM
- TGI (COLO 205 colon): > 100 µM
- TGI (MOLT-4 leukemia): > 100 µM
- TGI (DU-145 prostate): > 100 µM
- TGI (NCI/ADR-RES ovarian): > 100 µM
- TGI (MDA-MB-231 breast): > 100 µM
- TGI (NCI-H23 lung): > 100 µM
- TGI (HT29 colon): > 100 µM
- TGI (SNB-19 CNS): > 100 µM
- TGI (OVCAR-5 ovarian): > 100 µM
- TGI (UACC-62 melanoma): > 100 µM
- TGI (SF-539 CNS): > 100 µM
- TGI (HCC-2998 colon): > 100 µM
- TGI (SK-MEL-28 melanoma): > 100 µM
- TGI (SN12C renal): > 100 µM
- TGI (ACHN renal): > 100 µM
- TGI (NCI-H460 lung): > 100 µM
- TGI (SF-268 CNS): > 100 µM
- TGI (SF-295 CNS): > 100 µM
- TGI (A498 renal): > 100 µM
- TGI (RPMI-8226 leukemia): > 100 µM
- TGI (M14 melanoma): > 100 µM
- TGI (786-0 renal): > 100 µM
- TGI (SK-MEL-5 melanoma): > 100 µM
- TGI (TK-10 renal): > 100 µM
- TGI (UACC-257 melanoma): > 100 µM
- TGI (HL-60(TB) leukemia): > 100 µM
- TGI (PC-3 prostate): > 100 µM
- TGI (OVCAR-4 ovarian): > 100 µM
- TGI (CAKI-1 renal): > 100 µM
- TGI (UO-31 renal): > 100 µM
- TGI (MDA-MB-435): > 100 µM
- TGI (KM12 colon): > 100 µM
- TGI (HCT-116 colon): > 100 µM
- TGI (RXF 393 renal): 8.62 µM
- TGI (SK-MEL-2 melanoma): > 100 µM
- TGI (K-562 leukemia): > 100 µM
- TGI (OVCAR-3 ovarian): > 100 µM
- TGI (HCT-15 colon): > 100 µM
- TGI (SW-620 colon): > 100 µM
- TGI (A549 NSCLC): > 100 µM
- TGI (OVCAR-8 ovarian): > 100 µM
